According to article PMC5218480 (PLoS ONE, 2017):

Tested on: MV-4-11 cells
Assay: Gene expression microarray analysis (Affymetrix PrimeView) and GSEA
Format: cell-based, human
Set-up: RFU PODN (11730768_x_at) / Fold change /veh PODN (11730768_x_at) / RFU LINC00158 (11744669_a_at) / Fold change /veh LINC00158 (11744669_a_at) / RFU DUSP10 (11751237_a_at) / Fold change /veh DUSP10 (11751237_a_at) / RFU ID3 (11757404_x_at) / Fold change /veh ID3 (11757404_x_at) / RFU PLEKHG5 (11737974_s_at) / Fold change /veh PLEKHG5 (11737974_s_at) / RFU LRRC4B (11730491_at) / Fold change /veh LRRC4B (11730491_at) / RFU GIMAP4 (11747438_a_at) / Fold change /veh GIMAP4 (11747438_a_at) / RFU KRT8 (11758183_x_at) / Fold change /veh KRT8 (11758183_x_at) / RFU CNN1 (11734310_a_at) / Fold change /veh CNN1 (11734310_a_at) / RFU VPS37D (11726825_at) / Fold change /veh VPS37D (11726825_at) / RFU C10orf10 (11716522_x_at) / Fold change /veh C10orf10 (11716522_x_at) / RFU KIR2DL2 /// KIR2DL4 /// KIR2DL5A /// KIR2DL5B /// KIR2DS1 /// KIR2DS2 /// KIR2DS3 /// KIR2DS4 /// KIR3DL3 /// KIR3DL3 /// KIR3DS1 (11738374_at) / Fold change /veh KIR2DL2 /// KIR2DL4 /// KIR2DL5A /// KIR2DL5B /// KIR2DS1 /// KIR2DS2 /// KIR2DS3 /// KIR2DS4 /// KIR3DL3 /// KIR3DL3 /// KIR3DS1 (11738374_at) / RFU C1QL1 (11718748_at) / Fold change /veh C1QL1 (11718748_at) / RFU TMPRSS4 (11747572_a_at) / Fold change /veh TMPRSS4 (11747572_a_at) / RFU HAMP (11756126_x_at) / Fold change /veh HAMP (11756126_x_at) / RFU RNFT2 (11725882_a_at) / Fold change /veh RNFT2 (11725882_a_at) / RFU NR4A2 (11747474_a_at) / Fold change /veh NR4A2 (11747474_a_at) / RFU ABCC12 (11746883_a_at) / Fold change /veh ABCC12 (11746883_a_at) / RFU TMEM136 (11760407_x_at) / Fold change /veh TMEM136 (11760407_x_at) / RFU CLDN22 /// WWC2 (11732394_at) / Fold change /veh CLDN22 /// WWC2 (11732394_at) / RFU HLA-DPB1 (11760878_x_at) / Fold change /veh HLA-DPB1 (11760878_x_at) / RFU SPINT1 (11716480_a_at) / Fold change /veh SPINT1 (11716480_a_at) / RFU GAP43 (11754022_s_at) / Fold change /veh GAP43 (11754022_s_at) / RFU A4GNT (11735810_at) / Fold change /veh A4GNT (11735810_at) / RFU PRB3 (11715151_x_at) / Fold change /veh PRB3 (11715151_x_at) / RFU TUBB4B (11761932_at) / Fold change /veh TUBB4B (11761932_at) / RFU CAPN14 (11732068_a_at) / Fold change /veh CAPN14 (11732068_a_at) / RFU TMCC2 (11721928_a_at) / Fold change /veh TMCC2 (11721928_a_at) / RFU IRGQ (11745062_a_at) / Fold change /veh IRGQ (11745062_a_at) / RFU FAM174B (11720279_a_at) / Fold change /veh FAM174B (11720279_a_at) / RFU TMPRSS4 (11748680_a_at) / Fold change /veh TMPRSS4 (11748680_a_at) / RFU FAM212B (11763350_a_at) / Fold change /veh FAM212B (11763350_a_at) / RFU PLEKHG5 (11743358_a_at) / Fold change /veh PLEKHG5 (11743358_a_at) / RFU ZSCAN30 (11745921_a_at) / Fold change /veh ZSCAN30 (11745921_a_at) / RFU CMKLR1 (11741424_a_at) / Fold change /veh CMKLR1 (11741424_a_at) / RFU LOC101060620 /// MAPK8IP1 (11723275_at) / Fold change /veh LOC101060620 /// MAPK8IP1 (11723275_at) / RFU SPTSSB (11747773_x_at) / Fold change /veh SPTSSB (11747773_x_at) / RFU PRSS12 (11739890_at) / Fold change /veh PRSS12 (11739890_at) / RFU BIN1 (11741810_x_at) / Fold change /veh BIN1 (11741810_x_at) / RFU WNT11 (11732464_a_at) / Fold change /veh WNT11 (11732464_a_at) / RFU C10orf10 (11716521_a_at) / Fold change /veh C10orf10 (11716521_a_at) / RFU C5orf56 (11738089_at) / Fold change /veh C5orf56 (11738089_at) / RFU CYB561 (11721691_x_at) / Fold change /veh CYB561 (11721691_x_at) / RFU ANKRD19P (11752326_a_at) / Fold change /veh ANKRD19P (11752326_a_at) / RFU OR2T12 /// OR2T33 /// OR2T8 (11738714_s_at) / Fold change /veh OR2T12 /// OR2T33 /// OR2T8 (11738714_s_at) / RFU VCAN (11748164_a_at) / Fold change /veh VCAN (11748164_a_at) / RFU JSRP1 (11732532_at) / Fold change /veh JSRP1 (11732532_at) / RFU KRTAP10-11 (11738290_x_at) / Fold change /veh KRTAP10-11 (11738290_x_at) / RFU MYO3A (11730013_a_at) / Fold change /veh MYO3A (11730013_a_at) / RFU EBF3 (11725865_a_at) / Fold change /veh EBF3 (11725865_a_at) / RFU CAMK2N1 (11719241_x_at) / Fold change /veh CAMK2N1 (11719241_x_at) / RFU C5orf56 (11738088_a_at) / Fold change /veh C5orf56 (11738088_a_at) / RFU OLFML3 (11715873_a_at) / Fold change /veh OLFML3 (11715873_a_at) / RFU LOC100653217 /// NTM (11731650_a_at) / Fold change /veh LOC100653217 /// NTM (11731650_a_at) / RFU MAPK11 (11762145_a_at) / Fold change /veh MAPK11 (11762145_a_at) / RFU FIZ1 (11724087_x_at) / Fold change /veh FIZ1 (11724087_x_at) / RFU OASL (11726364_x_at) / Fold change /veh OASL (11726364_x_at) / RFU SOX15 (11748057_x_at) / Fold change /veh SOX15 (11748057_x_at) / RFU CD79A (11719716_a_at) / Fold change /veh CD79A (11719716_a_at) / RFU HIST1H1D (11736915_at) / Fold change /veh HIST1H1D (11736915_at) / RFU CASKIN2 (11723855_a_at) / Fold change /veh CASKIN2 (11723855_a_at) / RFU LOC730098 (11760151_x_at) / Fold change /veh LOC730098 (11760151_x_at) / RFU OR4N2 (11742367_at) / Fold change /veh OR4N2 (11742367_at) / RFU PRRT2 (11749266_a_at) / Fold change /veh PRRT2 (11749266_a_at) / RFU SNX32 (11753110_a_at) / Fold change /veh SNX32 (11753110_a_at) / RFU CDHR5 (11726645_a_at) / Fold change /veh CDHR5 (11726645_a_at) / RFU RCAN1 (11760418_a_at) / Fold change /veh RCAN1 (11760418_a_at) / RFU FAM167A (11723789_a_at) / Fold change /veh FAM167A (11723789_a_at) / RFU FAM26E (11764081_at) / Fold change /veh FAM26E (11764081_at) / RFU ISYNA1 (11749810_s_at) / Fold change /veh ISYNA1 (11749810_s_at) / RFU ACY1 (11761880_at) / Fold change /veh ACY1 (11761880_at) / RFU 11764098_at / Fold change /veh 11764098_at / RFU SAMD14 (11745864_x_at) / Fold change /veh SAMD14 (11745864_x_at) / RFU NPB (11741838_a_at) / Fold change /veh NPB (11741838_a_at) / RFU TMPRSS6 (11731388_a_at) / Fold change /veh TMPRSS6 (11731388_a_at) / RFU KRTAP10-2 (11738614_at) / Fold change /veh KRTAP10-2 (11738614_at) / RFU ARHGAP8 /// PRR5-ARHGAP8 (11727945_x_at) / Fold change /veh ARHGAP8 /// PRR5-ARHGAP8 (11727945_x_at) / RFU KRTAP5-7 /// NADSYN1 (11734609_at) / Fold change /veh KRTAP5-7 /// NADSYN1 (11734609_at) / RFU RASL12 (11751679_a_at) / Fold change /veh RASL12 (11751679_a_at) / RFU CDKN2B (11736163_a_at) / Fold change /veh CDKN2B (11736163_a_at) / RFU PRF1 (11729649_at) / Fold change /veh PRF1 (11729649_at) / RFU, ZNF638 /// ZNF638-IT1 / Fold change vs veh, ZNF638 /// ZNF638-IT1 / RFU, PANK3 / Fold change vs veh, PANK3 / RFU, SH3YL1 / Fold change vs veh, SH3YL1 / RFU, ZEB2 / Fold change vs veh, ZEB2 / RFU, NRIP1 / Fold change vs veh, NRIP1 / RFU, PTTG1IP / Fold change vs veh, PTTG1IP / RFU, CAPN2 / Fold change vs veh, CAPN2 / RFU, MED14 / Fold change vs veh, MED14 / RFU, SNORA58 / Fold change vs veh, SNORA58 / RFU, C1orf63 / Fold change vs veh, C1orf63 / RFU, LRRFIP1 / Fold change vs veh, LRRFIP1 / RFU, NDUFAF7 / Fold change vs veh, NDUFAF7 / RFU, SLC12A2 / Fold change vs veh, SLC12A2 / RFU, IBTK / Fold change vs veh, IBTK / RFU, ESF1 / Fold change vs veh, ESF1 / Fold change vs veh, TMEM50B / RFU, TAOK1 / Fold change vs veh, TAOK1 / RFU, ACBD3 / Fold change vs veh, ACBD3 / RFU, TMA16 / Fold change vs veh, TMA16 / RFU, RWDD3 / Fold change vs veh, RWDD3 / RFU, BCAT1 / Fold change vs veh, BCAT1 / RFU, EDEM3 / Fold change vs veh, EDEM3 / RFU, TMEM33 / Fold change vs veh, TMEM33 / RFU, WDR75 / Fold change vs veh, WDR75 / RFU, AHCTF1 / Fold change vs veh, AHCTF1 / RFU, TFRC / Fold change vs veh, TFRC / RFU, ZDHHC17 / Fold change vs veh, ZDHHC17 / RFU, NOM1 / Fold change vs veh, NOM1 / RFU, ARL8B / Fold change vs veh, ARL8B / RFU, ZBTB11 / Fold change vs veh, ZBTB11 / RFU, TAMM41 / Fold change vs veh, TAMM41 / RFU, KIAA1704 /// LOC100996395 / Fold change vs veh, KIAA1704 /// LOC100996395 / RFU, ING1 / Fold change vs veh, ING1 / RFU, TRMT61B / Fold change vs veh, TRMT61B / RFU, FUBP3 / Fold change vs veh, FUBP3 / RFU, TP53 / Fold change vs veh, TP53 / RFU, TNKS2 / Fold change vs veh, TNKS2 / RFU, ZFP14 / Fold change vs veh, ZFP14 / RFU, ACTR2 / Fold change vs veh, ACTR2 / RFU, PPP3R1 / Fold change vs veh, PPP3R1 / RFU, PIK3R1 / Fold change vs veh, PIK3R1 / RFU, HNRNPA1 / Fold change vs veh, HNRNPA1 / RFU, RNF170 / Fold change vs veh, RNF170 / RFU, ZNF28 / Fold change vs veh, ZNF28 / RFU, RNGTT / Fold change vs veh, RNGTT / RFU, OGT / Fold change vs veh, OGT / RFU, BRD1 / Fold change vs veh, BRD1 / RFU, MARS / Fold change vs veh, MARS / RFU, ZNF655 / Fold change vs veh, ZNF655 / RFU, FAHD1 / Fold change vs veh, FAHD1 / RFU, BDP1 / Fold change vs veh, BDP1 / RFU, LRRCC1 / Fold change vs veh, LRRCC1 / RFU, ARID1A / Fold change vs veh, ARID1A / RFU, ZNF146 / Fold change vs veh, ZNF146 / RFU, ZNF330 / Fold change vs veh, ZNF330 / RFU, GPN3 / Fold change vs veh, GPN3 / RFU, C9orf123 / Fold change vs veh, C9orf123 / RFU, N4BP2L2 / Fold change vs veh, N4BP2L2 / RFU, ARFIP1 / Fold change vs veh, ARFIP1 / RFU, FAM179B / Fold change vs veh, FAM179B / RFU, BCL10 / Fold change vs veh, BCL10 / RFU, UHRF1BP1L / Fold change vs veh, UHRF1BP1L / RFU, BET1 / Fold change vs veh, BET1 / RFU, CNOT2 / Fold change vs veh, CNOT2 / RFU, ZNF268 / Fold change vs veh, ZNF268 / Fold change vs veh, ZNF507 / RFU, DGCR2 / Fold change vs veh, DGCR2 / RFU, WDSUB1 / Fold change vs veh, WDSUB1 / Fold change vs veh, HSP90B1 /// MIR3652 / RFU, ADSS / Fold change vs veh, ADSS / RFU, GK / Fold change vs veh, GK / RFU, ZNF148 / Fold change vs veh, ZNF148 / RFU, TAF9 / Fold change vs veh, TAF9 / RFU, SLC1A5 / Fold change vs veh, SLC1A5 / RFU, SLMO2 / Fold change vs veh, SLMO2 / RFU, ABCC4 / Fold change vs veh, ABCC4 / RFU, LOC101060439 /// RAP1B / Fold change vs veh, LOC101060439 /// RAP1B / RFU, RFX7 / Fold change vs veh, RFX7 / RFU, GTPBP10 / Fold change vs veh, GTPBP10 / RFU, CNEP1R1 / Fold change vs veh, CNEP1R1 / RFU, BIVM-ERCC5 /// ERCC5 / Fold change vs veh, BIVM-ERCC5 /// ERCC5 / RFU, ILF3 / Fold change vs veh, ILF3 / RFU 11762660_at / Fold change /veh 11762660_at / RFU VCAN (11757783_s_at) / Fold change /veh VCAN (11757783_s_at) / RFU DDX43 (11728927_at) / Fold change /veh DDX43 (11728927_at) / RFU KRT8 (11758188_x_at) / Fold change /veh KRT8 (11758188_x_at) / RFU NKD1 (11759106_at) / Fold change /veh NKD1 (11759106_at) / RFU SRD5A1 (11742802_a_at) / Fold change /veh SRD5A1 (11742802_a_at) / RFU TPSAB1 /// TPSB2 (11721975_s_at) / Fold change /veh TPSAB1 /// TPSB2 (11721975_s_at) / RFU GSTM3 (11746129_a_at) / Fold change /veh GSTM3 (11746129_a_at) / RFU IL23R (11737362_x_at) / Fold change /veh IL23R (11737362_x_at) / RFU TMEM51 (11727254_a_at) / Fold change /veh TMEM51 (11727254_a_at) / RFU PIWIL2 (11732686_x_at) / Fold change /veh PIWIL2 (11732686_x_at) / RFU ORM1 (11744905_x_at) / Fold change /veh ORM1 (11744905_x_at) / RFU CCDC152 (11743942_at) / Fold change /veh CCDC152 (11743942_at) / RFU ECM1 (11717891_a_at) / Fold change /veh ECM1 (11717891_a_at) / RFU IL23R (11748794_a_at) / Fold change /veh IL23R (11748794_a_at) / RFU TNFAIP8L3 (11732012_x_at) / Fold change /veh TNFAIP8L3 (11732012_x_at) / RFU MBOAT4 (11741988_at) / Fold change /veh MBOAT4 (11741988_at) / RFU 11764193_at / Fold change /veh 11764193_at / RFU TMEM53 (11763286_at) / Fold change /veh TMEM53 (11763286_at) / RFU MAGEB2 (11727129_at) / Fold change /veh MAGEB2 (11727129_at) / RFU TMEM200A (11744735_a_at) / Fold change /veh TMEM200A (11744735_a_at) / RFU CCDC152 (11751479_a_at) / Fold change /veh CCDC152 (11751479_a_at) / RFU FAM211A (11726209_a_at) / Fold change /veh FAM211A (11726209_a_at) / RFU RGS16 (11746705_a_at) / Fold change /veh RGS16 (11746705_a_at) / RFU VCAN (11755009_s_at) / Fold change /veh VCAN (11755009_s_at) / RFU RHOB (11743442_s_at) / Fold change /veh RHOB (11743442_s_at) / RFU RGS16 (11720943_a_at) / Fold change /veh RGS16 (11720943_a_at) / RFU RGS16 (11720944_at) / Fold change /veh RGS16 (11720944_at) / RFU, VPS4B / Fold change vs veh, VPS4B / RFU, CREB1 / Fold change vs veh, CREB1 / RFU, DNAJC13 / Fold change vs veh, DNAJC13 / RFU, GNAQ / Fold change vs veh, GNAQ / RFU, CDK5R1 / Fold change vs veh, CDK5R1 / RFU, ZRANB3 / Fold change vs veh, ZRANB3 / RFU, CUL4A / Fold change vs veh, CUL4A / RFU, CCNY / Fold change vs veh, CCNY / RFU, UFL1 / Fold change vs veh, UFL1 / RFU, COG3 / Fold change vs veh, COG3 / RFU, DIAPH2 / Fold change vs veh, DIAPH2 / RFU, SKA2 / Fold change vs veh, SKA2 / RFU, AFF3 / Fold change vs veh, AFF3 / RFU, LMF1 / Fold change vs veh, LMF1 / RFU, IPO11 / Fold change vs veh, IPO11 / RFU, DFFB / Fold change vs veh, DFFB / RFU, FOXP1 / Fold change vs veh, FOXP1 / RFU, CARD8 / Fold change vs veh, CARD8 / RFU, STRN3 / Fold change vs veh, STRN3 / RFU, ADK / Fold change vs veh, ADK / RFU, RASSF2 / Fold change vs veh, RASSF2 / RFU, WIPF1 / Fold change vs veh, WIPF1 / RFU, LARP1B / Fold change vs veh, LARP1B / RFU, RASA1 / Fold change vs veh, RASA1 / RFU, RB1 / Fold change vs veh, RB1 / RFU, PPFIA1 / Fold change vs veh, PPFIA1 / RFU, MAT2A / Fold change vs veh, MAT2A / RFU, CCT5 / Fold change vs veh, CCT5 / RFU, WDR92 / Fold change vs veh, WDR92 / RFU, CUX1 / Fold change vs veh, CUX1 / RFU, TTC7A / Fold change vs veh, TTC7A / RFU, TMEM135 / Fold change vs veh, TMEM135 / RFU, DEPTOR / Fold change vs veh, DEPTOR / RFU, CPM / Fold change vs veh, CPM / RFU, DNAJB6 / Fold change vs veh, DNAJB6 / RFU, CACNA2D3 / Fold change vs veh, CACNA2D3 / RFU, DTX4 / Fold change vs veh, DTX4 / RFU, TFCP2 / Fold change vs veh, TFCP2 / RFU, GMCL1 /// GMCL1P1 / Fold change vs veh, GMCL1 /// GMCL1P1 / RFU, AEBP2 / Fold change vs veh, AEBP2 / RFU, SNHG1 /// SNORD22 /// SNORD25 /// SNORD26 /// SNORD27 /// SNORD28 /// SNORD29 /// SNORD31 / Fold change vs veh, SNHG1 /// SNORD22 /// SNORD25 /// SNORD26 /// SNORD27 /// SNORD28 /// SNORD29 /// SNORD31 / Fold change (Aza/veh), C12orf56 (ProbeSet 11735607_a_at) / Fold change (ACY-1035/veh), C12orf56 (ProbeSet 11735607_a_at) / Fold change (Aza/veh), FGFR1OP (ProbeSet 11751329_s_at) / Fold change (ACY-1035/veh), FGFR1OP (ProbeSet 11751329_s_at) / Fold change (Aza/veh), VPS36 (ProbeSet 11739960_a_at) / Fold change (ACY-1035/veh), VPS36 (ProbeSet 11739960_a_at) / RFU SYPL1 (11715823_x_at) / Fold change /veh SYPL1 (11715823_x_at) / RFU IGFBP7 (11715501_s_at) / Fold change /veh IGFBP7 (11715501_s_at) / RFU REEP3 (11722064_at) / Fold change /veh REEP3 (11722064_at) / RFU IGLL1 (11728026_x_at) / Fold change /veh IGLL1 (11728026_x_at): dose or concentration left out as unconfirmed
Details: ProbeSet 11730501_a_at; LIST D

## Nc1ncn([C@@H]2O[C@H](CO)[C@@H](O)[C@H]2O)c(=O)n1 [azacitidine]
  Fold change vs veh, CACNA2D3: 0.63
